Values quoted from earlier work as cited in the CATMoS acute toxicity set (Mansouri et al. 2021).
“And” between values parts separate entries of the source, which are not always exact repeats. Identical values can stand only once.

test: rat acute oral toxicity; conditions: in vivo
Description: […]The data set underlying the modeling effort for this project was initially compiled by NICEATM and U.S. EPA’s CCTE. Briefly, LD50 data were collected from rat acute oral systemic toxicity tests, including limit tests, ranges/confidence intervals, and discrete LD50 values. The full data set included 21,200 LD50 entries for 15,688 substances. […] Data were reviewed to ensure that LD50 values with obvious errors in the extracted data such as unit conversion errors (e.g., comma and decimal separator misplacements) were either fixed or removed. After this review, 16,209 LD50 values remained. Many of the chemicals represented had multiple LD50 entries, requiring that a single representative value per Chemical Abstracts Service Registry Number (CASRN) identifier be defined to facilitate modeling efforts. Based on ATWG feedback and to define the representative LD50 as a protective value while accounting for the distribution across multiple LD50s, the median of the lowest quartile was computed using only discrete LD50 values (omitting limit test data and range and confidence interval data). A detailed summary of the data compilation is available online on the NICEATM webpage dedicated to the collaborative modeling project (NTP 2020).
[…][…] For categorical designations, limit test and range/confidence interval LD50 data were integrated wherever possible. As such, the number of chemicals with end point values/calls varies across the modeling end points (Table 3) based on whether chemicals had representative LD50 values and/or other data. If a chemical had both, the representative value was used to determine categorical calls rather than limit test data. Some data were useable only for certain end points and categories depending on the thresholds. For example, ranges that spanned multiple hazard categories were considered only for the binary (very toxic/nontoxic) end points and omitted from rendering a determination for hazard category assignment.
[…]The final data set comprising 11,992 chemicals was split into training and evaluation sets […], respectively. This process was performed semirandomly by ordering chemicals based on the five end points (categorical and continuous LD50 values) and partitioning every fourth record into the evaluation set accordingly. This approach was taken to ensure an equivalent distribution of the LD50 values and the different hazard categories between the training and the evaluation sets without supervised sampling of the chemicals based on structures (Figure 1A). The sources of the chemical structures were also kept equivalent between the two sets, with chemical structures obtained from DSSTox, being the highest quality, representing over 75% of each set (Figure 1B).

Structure (SMILES)	LD50
O=C(CCCN1CCN(C(=O)OC2CCCCC2)CC1)c1ccc(F)cc1	1080 mg/kg
C=C(C)C(=O)OCCN(CC)CC	4700 mg/kg
O=NN1CCCOC1	600 mg/kg
CCOP(=O)(OCC)OC(=C(Br)Br)c1ccc(Cl)cc1Cl	78.1 mg/kg
ClCNc1cc(Cl)ccc1Oc1ccc(Cl)cc1	726 mg/kg
CC1CC(C)(C)OB(OC(C)CC(C)(C)OB2OC(C)CC(C)(C)O2)O1 (centres undefined)	4720 mg/kg
CCOP(=O)(OCC)SCC(=O)NC(C)(C)C#N	3.5 mg/kg
CC(=O)NC(=O)N(C)N=O	200 mg/kg
Cc1cc(Cl)ccc1OCC(=O)Nc1ccccc1	4500 mg/kg
FC(Cl)(C(Cl)(Cl)Cl)C(Cl)(Cl)Cl	500 mg/kg
COc1cc(Cc2cnc(N)nc2N)cc(OC)c1Br	2510 mg/kg
CCCCc1ccc2c(S(=O)(=O)O)cc(CCCC)cc2c1	1250 mg/kg
CC(=O)OC(C)=O	1780 mg/kg
C=C(OP(=O)(OC)OC)c1ccc(Cl)cc1Cl	2350 mg/kg
CCP(=S)(CC)Oc1cc(Cl)c(Cl)cc1Cl	100 mg/kg
C[N+](C)([O-])CCC=C1c2ccccc2CCc2ccccc21	1800 mg/kg
Cc1ccc2[nH]c(C(F)(F)F)nc2c1[N+](=O)[O-]	7.75 mg/kg
NCCOC(=O)C=CC(=O)OCCN	4920 mg/kg
Cc1ccc(CCOC(=O)c2cccnc2)cc1	3500 mg/kg
CCOC(=O)N1CC=Cc2ccccc21	195 mg/kg
C[N+]1(CCC(O)(c2ccccc2)C2CCCCC2)CCCC1 (centres undefined)	984 mg/kg and 985 mg/kg
CCC(CC)C(=O)NC(=Cc1ccc(OC)cc1)C(=O)O	4000 mg/kg

Structure (SMILES)	LD50
CC1CC(C)(O)CC(C(O)CC2CC(=O)NC(=O)C2)C1=O (centres undefined)	3 mg/kg
CC(C)=NOC(=O)Nc1ccccc1	1540 mg/kg
COc1ccc2c(c1OC)C13CCN(C)C(C2)C1(O)CCC(O)C3 (centres undefined)	339 mg/kg
O=C1CCC(N2C(=O)c3ccccc3C2=O)C(=O)N1 (centres undefined)	113 mg/kg
C=CCC1=C(C)C(OC(=O)C2C(C=C(C)C)C2(C)C)CC1=O (centres undefined)	685 mg/kg
C=CC(=O)OCCCOCC	820 mg/kg
CC(C)C1=CCC(CCOC=O)=CC1	3570 mg/kg
FC(F)(F)c1nc2c(C(F)(F)F)cc(Cl)cc2[nH]1	1.66 mg/kg
CN(C)c1ccc(SC#N)cc1	500 mg/kg
CCCCCCOCC(O)COc1ccccc1C(=O)O (centres undefined)	2150 mg/kg
BrCC(Br)C1CCC(Br)C(Br)C1 (centres undefined)	3220 mg/kg
Cc1cccs1	3200 mg/kg
CC(C)(N1CC1C#N)N1CC1C(N)=O (centres undefined)	3100 mg/kg
CN(C)C(=O)Oc1cccc([N+](C)(C)C)c1	51 mg/kg
O=[N+]([O-])C=C1SCCN1Cc1ccccc1	1000 mg/kg
CNC(=O)Oc1cc(C(C)(C)C)cc(C(C)(C)C)c1	1800 mg/kg
C[N+]1(C)CCC(=C(c2ccccc2)c2ccccc2)CC1	1110 mg/kg
Cc1ccccc1C(=O)Nc1cccc(OC(C)C)c1	10000 mg/kg
C=CCOc1ccccc1C(N)=O	780 mg/kg
CNCc1cccc2ccccc12	50 mg/kg
O=C1c2cccc(S(=O)(=O)O)c2C(=O)c2cccc(S(=O)(=O)O)c21	2360 mg/kg
C=CCc1cc(OC)c2c(c1)OCO2	4260 mg/kg

Structure (SMILES)	LD50
Nc1nncs1	253 mg/kg
Cc1onc(-c2c(Cl)cccc2Cl)c1C(=O)N[C@@H]1C(=O)N2[C@@H]1SC(C)(C)[C@@H]2C(=O)O	3580 mg/kg
O=C1CCCC1	2690 mg/kg
O[C@@H](c1cc(C(F)(F)F)nc2c(Cl)cc(Cl)cc12)[C@@H]1CCCCN1	1130 mg/kg
CCc1ccc(C(=O)c2ccccc2)c(C(=O)O)c1	4450 mg/kg
CN(C)CCCN	1870 mg/kg
COP(=O)(OC)C(OC(=O)CCl)C(Cl)(Cl)Cl (centres undefined)	344 mg/kg
O=C(O)c1cc(O)cc(C(=O)O)c1	11200 mg/kg
O=c1nn[nH]c2ccccc12	595 mg/kg
CCCSP(=O)(OCC)Oc1cnn(-c2ccc(Cl)cc2)c1 (centres undefined)	237 mg/kg
CCOC(=O)C1(c2ccccc2)CCN(C)CC1	170 mg/kg
COc1cc(O)c(C(=O)c2ccccc2)cc1S(=O)(=O)O	3530 mg/kg
CCC1(C(C)CC(C)C)C(=O)NC(=O)NC1=O (centres undefined)	75 mg/kg
COP(=S)(OC)Oc1cc(C)n(C)c(=O)c1	0.812 mg/kg
Ic1ccc(Nc2nnc(CCN3c4ccccc4Sc4ccccc43)s2)cc1	3100 mg/kg
COc1ccc(SC#N)c([N+](=O)[O-])c1	3540 mg/kg
CCN(CC)CCN1C(=O)CN=C(c2ccccc2F)c2cc(Cl)ccc21	879 mg/kg and 980 mg/kg and 978 mg/kg
CCC1(CC)C(=O)C=CNC1=O	780 mg/kg
C=CC(=O)OCCCCCCC	4500 mg/kg
CCCc1ccccc1	6040 mg/kg
